Laboratory results published in ChEMBL document CHEMBL5385876, “Discovery of unglycosylated indolocarbazoles as ROCK2 isoform-selective inhibitors for the treatment of breast cancer metastasis” (Eur J Med Chem, 2023).
Calls of active or inactive are those of the source. The calls are words filed in the database; no cut-off is given here.

How the values were obtained:
[1] = target: T1, Rho-associated protein kinase 2 (Homo sapiens, UniProt O75116); test: Binding affinity to ROCK2 in human MDA-MB- 231 cells assessed as stabilization at 100 uM and 52 to 61 degreeC incubated for 5 mins by CETSA; format: cell-based
T1 sequence (O75116 whole entry, looked up): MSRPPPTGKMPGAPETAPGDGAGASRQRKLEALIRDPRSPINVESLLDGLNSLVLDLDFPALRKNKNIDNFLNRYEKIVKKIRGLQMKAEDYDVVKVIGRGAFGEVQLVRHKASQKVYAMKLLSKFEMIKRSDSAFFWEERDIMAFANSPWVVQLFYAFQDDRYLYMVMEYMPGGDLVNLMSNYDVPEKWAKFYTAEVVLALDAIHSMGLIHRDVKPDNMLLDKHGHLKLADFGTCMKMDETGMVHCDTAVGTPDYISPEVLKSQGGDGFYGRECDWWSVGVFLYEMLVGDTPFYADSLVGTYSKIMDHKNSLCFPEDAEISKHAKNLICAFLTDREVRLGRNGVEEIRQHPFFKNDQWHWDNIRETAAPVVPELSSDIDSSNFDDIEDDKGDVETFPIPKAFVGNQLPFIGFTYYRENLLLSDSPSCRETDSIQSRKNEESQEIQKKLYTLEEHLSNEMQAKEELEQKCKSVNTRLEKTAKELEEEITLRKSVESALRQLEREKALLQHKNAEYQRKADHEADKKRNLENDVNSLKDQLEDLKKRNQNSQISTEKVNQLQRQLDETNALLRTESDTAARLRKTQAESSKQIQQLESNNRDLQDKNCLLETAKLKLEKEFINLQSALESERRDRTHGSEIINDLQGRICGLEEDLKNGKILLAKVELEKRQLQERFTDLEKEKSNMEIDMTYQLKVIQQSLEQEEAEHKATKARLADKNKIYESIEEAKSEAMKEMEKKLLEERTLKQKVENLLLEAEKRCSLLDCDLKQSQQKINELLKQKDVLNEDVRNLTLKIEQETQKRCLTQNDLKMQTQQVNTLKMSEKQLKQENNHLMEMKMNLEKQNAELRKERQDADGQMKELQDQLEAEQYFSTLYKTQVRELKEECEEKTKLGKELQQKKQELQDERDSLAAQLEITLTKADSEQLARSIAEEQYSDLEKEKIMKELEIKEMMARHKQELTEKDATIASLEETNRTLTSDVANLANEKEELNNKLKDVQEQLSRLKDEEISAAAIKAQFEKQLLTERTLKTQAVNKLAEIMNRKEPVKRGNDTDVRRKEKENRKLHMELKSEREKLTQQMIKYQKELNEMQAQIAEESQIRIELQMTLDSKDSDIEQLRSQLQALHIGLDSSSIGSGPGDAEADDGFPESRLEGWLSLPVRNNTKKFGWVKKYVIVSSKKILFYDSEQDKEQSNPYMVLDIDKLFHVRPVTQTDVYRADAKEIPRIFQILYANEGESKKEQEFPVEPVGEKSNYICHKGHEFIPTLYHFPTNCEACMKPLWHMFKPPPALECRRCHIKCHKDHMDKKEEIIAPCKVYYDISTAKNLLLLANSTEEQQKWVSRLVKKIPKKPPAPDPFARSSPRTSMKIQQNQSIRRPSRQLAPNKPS

[2] = test system: MDA-MB-231; test: Antimetastatic activity in human MDA-MB-231 cells assessed as increase in nuclear scales at 5 uM incubated for 24 hrs by FITC-conjugated phalloidin staining based confocal microscopic analysis; format: functional, cell-based
[3] = test system: MDA-MB-231; test: Antimetastatic activity in human MDA-MB-231 cells assessed as appearance of disordered and sparse actin filament at 5 uM incubated for 24 hrs by SEM analysis; format: functional, cell-based
[4] = test system: MDA-MB-231; test: Inhibition of cell migration in human MDA-MB-231 cells incubated for 48 hrs by scratch wound healing assay; format: functional, cell-based; settings: dose 1.25-10 µM
[5] = Toxicity in BALB/c nude mouse xenografted with human MDA-MB-231 cells harboring Luc-mcherry assessed as reduction in body weight at 15 mg/kg, iv administered once a day for 45 days; format: organism-based; settings: in vivo, 1080 h, time 45 day
[6] = test system: MDA-MB-231; test: Inhibition of cell invasion in human MDA-MB-231 cells incubated for 48 hrs by crystal violet staining based transwell assay; format: functional; settings: dose 1.25-10 µM
[7] = test system: SK-OV-3; test: Antiproliferative activity against human SK-OV-3 cells assessed as suppression of cell growth incubated for 72 hrs by SRB assay; format: functional, cell-based; settings: SK-OV-3, 72 h
[8] = test system: MDA-MB-231; test: Antimetastatic activity against human MDA-MB-231 cells harboring Luc-mcherry xenografted in BALB/c nude mouse at 15 mg/kg, iv administered once a day for 45 days and measured on day 19,30 and 45 by bioluminescence imaging; format: functional, organism-based; settings: time 45.0 day
[9] = test system: MDA-MB-231; test: Downregulation of phosphorylated STAT1 protein expression in human MDA-MB-231 cells at 0.5 uM incubated for 24 hrs by Western blot analysis; format: functional, cell-based
[10] = test system: MDA-MB-231; test: Downregulation of phosphorylated STAT3 protein expression in human MDA-MB-231 cells at 0.5 uM incubated for 24 hrs by Western blot analysis; format: functional, cell-based
[11] = test system: MDA-MB-231; test: Upregulation of phosphorylated STAT5A protein expression in human MDA-MB-231 cells at 0.5 uM incubated for 24 hrs by Western blot analysis; format: functional, cell-based
[12] = test system: MDA-MB-231; test: Upregulation of phosphorylated STAT6 protein expression in human MDA-MB-231 cells at 0.5 uM incubated for 24 hrs by Western blot analysis; format: functional, cell-based
[13] = AUC (0 to t) in ICR mouse at 15 mg/kg, iv administered as single dose and measured for 8 hrs by LC-MS/MS analysis; format: ADME, organism-based; parameters: time 8 hrs, dose 15 mg/kg, route iv; settings: in vivo
[14] = MRT (0 to t) in ICR mouse at 15 mg/kg, iv administered as single dose and measured for 8 hrs by LC-MS/MS analysis; format: ADME, organism-based; settings: in vivo
[15] = Half life in ICR mouse at 15 mg/kg, iv administered as single dose and measured for 8 hrs by LC-MS/MS analysis; format: ADME, organism-based; settings: in vivo
[16] = Clearance in ICR mouse at 15 mg/kg, iv administered as single dose and measured for 8 hrs by LC-MS/MS analysis; format: ADME, organism-based; settings: in vivo
[17] = Volume of distribution at steady state in ICR mouse at 15 mg/kg, iv administered as single dose and measured for 8 hrs by LC-MS/MS analysis; format: ADME, organism-based; settings: in vivo, read-out: Vdss
[18] = target: Rho-associated protein kinase 1 (Homo sapiens, UniProt Q13464); test: Inhibition of ROCK1 (unknown origin)
Rho-associated protein kinase 1, sequence (Q13464 whole entry): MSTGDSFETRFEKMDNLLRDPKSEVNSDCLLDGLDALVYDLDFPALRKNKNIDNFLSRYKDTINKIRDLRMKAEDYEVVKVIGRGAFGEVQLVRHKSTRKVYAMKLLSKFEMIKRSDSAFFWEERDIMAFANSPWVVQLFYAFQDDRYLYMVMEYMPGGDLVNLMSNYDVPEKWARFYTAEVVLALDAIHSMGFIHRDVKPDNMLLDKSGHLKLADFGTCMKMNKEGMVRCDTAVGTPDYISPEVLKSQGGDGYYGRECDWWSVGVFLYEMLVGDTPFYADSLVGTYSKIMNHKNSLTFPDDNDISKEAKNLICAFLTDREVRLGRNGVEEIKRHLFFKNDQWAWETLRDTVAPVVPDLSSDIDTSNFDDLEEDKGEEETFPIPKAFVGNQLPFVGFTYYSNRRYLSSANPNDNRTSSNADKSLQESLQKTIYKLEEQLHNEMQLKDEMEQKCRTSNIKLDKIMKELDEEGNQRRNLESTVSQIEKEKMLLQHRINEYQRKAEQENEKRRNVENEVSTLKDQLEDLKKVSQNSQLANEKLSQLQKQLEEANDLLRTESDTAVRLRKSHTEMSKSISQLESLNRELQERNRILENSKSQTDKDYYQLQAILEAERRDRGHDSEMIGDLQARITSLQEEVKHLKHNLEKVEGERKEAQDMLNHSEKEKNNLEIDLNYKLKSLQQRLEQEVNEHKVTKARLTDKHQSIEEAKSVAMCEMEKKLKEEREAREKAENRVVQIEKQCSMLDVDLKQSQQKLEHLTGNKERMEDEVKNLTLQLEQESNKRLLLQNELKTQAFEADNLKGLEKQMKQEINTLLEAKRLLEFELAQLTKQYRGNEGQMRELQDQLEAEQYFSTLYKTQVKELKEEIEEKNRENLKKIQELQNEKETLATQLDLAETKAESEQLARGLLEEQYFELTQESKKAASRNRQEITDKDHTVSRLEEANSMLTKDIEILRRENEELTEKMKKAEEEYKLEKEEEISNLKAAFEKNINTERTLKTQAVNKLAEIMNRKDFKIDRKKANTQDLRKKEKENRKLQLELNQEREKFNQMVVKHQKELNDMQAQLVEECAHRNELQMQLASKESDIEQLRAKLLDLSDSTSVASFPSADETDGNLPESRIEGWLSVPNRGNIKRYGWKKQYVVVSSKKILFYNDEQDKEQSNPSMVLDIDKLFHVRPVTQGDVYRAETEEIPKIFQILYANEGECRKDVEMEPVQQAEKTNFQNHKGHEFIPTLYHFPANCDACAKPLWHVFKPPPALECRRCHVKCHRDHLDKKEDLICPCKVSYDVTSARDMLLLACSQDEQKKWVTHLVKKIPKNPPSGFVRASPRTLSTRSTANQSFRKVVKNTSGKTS

[19] = target: Protein kinase C delta type (Homo sapiens, UniProt Q05655); test: Inhibition of PKCdelta (unknown origin)
[20] = Selectivity index, ratio of IC50 for PKCdelta (unknown origin) to IC50 for N-terminal His10-StrepII tagged human ROCK2 catalytic domain (1 to 553 residues) expressed in Sf9 insect cells
[21] = Oral bioavailability in ICR mouse at 20 mg/kg administered as single dose and measured for 8 hrs by LC-MS/MS analysis; format: ADME, organism-based; settings: in vivo
[22] = Drug uptake in lung of ICR mouse at 15 mg/kg, iv administered as single dose and measured after 0.25 to 4 hrs by LC-MS/MS analysis; format: ADME, organism-based; settings: in vivo, time 0.25-4 hrs
[23] = target: Signal transducer and activator of transcription 3 (Homo sapiens) (UniProt P40763); test: Inhibition of STAT3 activation in human MDA-MB-231 cells assessed as reduction in STAT3 phosphorylation at Y705 residue at 1.25 to 10 uM incubated for 24 hrs by Western blot analysis; format: cell-based; settings: dose 1.25-10 µM
Signal transducer and activator of transcription 3 (Homo sapiens), sequence (P40763 whole entry): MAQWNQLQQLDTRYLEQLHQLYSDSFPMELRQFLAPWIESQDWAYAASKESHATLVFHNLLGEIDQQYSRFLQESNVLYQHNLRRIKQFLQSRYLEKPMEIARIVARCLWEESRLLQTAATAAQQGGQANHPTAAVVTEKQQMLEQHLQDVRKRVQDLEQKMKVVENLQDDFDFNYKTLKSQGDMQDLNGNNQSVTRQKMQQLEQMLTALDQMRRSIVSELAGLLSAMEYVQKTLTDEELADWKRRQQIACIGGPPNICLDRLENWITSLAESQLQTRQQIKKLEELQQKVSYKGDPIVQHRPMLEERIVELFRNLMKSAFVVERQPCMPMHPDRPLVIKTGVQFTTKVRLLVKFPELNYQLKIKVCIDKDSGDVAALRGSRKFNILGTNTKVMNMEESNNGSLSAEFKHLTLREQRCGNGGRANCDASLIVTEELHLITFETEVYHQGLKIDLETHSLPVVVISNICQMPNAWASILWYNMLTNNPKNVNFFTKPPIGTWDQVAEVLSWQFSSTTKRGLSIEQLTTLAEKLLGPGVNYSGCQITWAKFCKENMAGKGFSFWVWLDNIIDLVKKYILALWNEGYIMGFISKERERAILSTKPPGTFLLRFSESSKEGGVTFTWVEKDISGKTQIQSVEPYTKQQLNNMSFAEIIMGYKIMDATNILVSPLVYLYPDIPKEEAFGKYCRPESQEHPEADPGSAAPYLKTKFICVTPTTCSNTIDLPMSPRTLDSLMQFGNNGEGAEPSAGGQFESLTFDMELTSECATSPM

[24] = target: Signal transducer and activator of transcription 3 (Homo sapiens) (UniProt P40763); test: Inhibition of STAT3 activation in human MDA-MB-231 cells assessed as reduction in phosphorylated STAT3 nuclear translocation at 5 uM incubated for 24 hrs by immunofluorescence analysis; format: cell-based
[25] = target: Signal transducer and activator of transcription 3 (Homo sapiens) (UniProt P40763); test: Inhibition of STAT3 transcriptional activity in human MDA-MB-231 cells assessed as reduction in TWIST1 mRNA level at 5 uM incubated for 24 hrs by qRT-PCR analysis; format: cell-based
[26] = test system: MDA-MB-231; test: Inhibition of IL-6 stimulated cell invasion in human MDA-MB-231 cells at 5 uM incubated for 24 hrs by crystal violet staining based transwell assay; format: functional
[27] = test system: MDA-MB-231; test: Inhibition of IL-6 stimulated phosphorylated STAT3 at Y705 residue expression in human MDA-MB-231 cells at 5 uM incubated for 24 hrs by Western blot analysis; format: functional, cell-based
[28] = target: T1, Rho-associated protein kinase 2; test: Binding affinity to wild type N-terminal His10-StrepII tagged human ROCK2 catalytic domain (1 to 553 residues) expressed in Sf9 insect cells assessed as change in melting temperature at 50 uM by SYPRO orange dye based thermal shift assay
[29] = test system: Rho-associated protein kinase 2 (Homo sapiens), O75116 [K121A]; test: Binding affinity to N-terminal His10-StrepII tagged human ROCK2 K121A mutant catalytic domain (1 to 553 residues) expressed in Sf9 insect cells assessed as change in melting temperature at 50 uM by SYPRO orange dye based thermal shift assay
[30] = test system: Rho-associated protein kinase 2 (Homo sapiens), O75116 [D232A]; test: Binding affinity to N-terminal His10-StrepII tagged human ROCK2 D232A mutant catalytic domain (1 to 553 residues) expressed in Sf9 insect cells assessed as change in melting temperature at 50 uM by SYPRO orange dye based thermal shift assay
[31] = test system: Rho-associated protein kinase 2 (Homo sapiens), O75116 [M87A]; test: Binding affinity to N-terminal His10-StrepII tagged human ROCK2 M87A mutant catalytic domain (1 to 553 residues) expressed in Sf9 insect cells assessed as change in melting temperature at 50 uM by SYPRO orange dye based thermal shift assay
[32] = target: High affinity nerve growth factor receptor (Homo sapiens) (UniProt P04629); test: Inhibition of human recombinant TRKA at 125 nM
High affinity nerve growth factor receptor (Homo sapiens), sequence (P04629 33-796 limits assumed): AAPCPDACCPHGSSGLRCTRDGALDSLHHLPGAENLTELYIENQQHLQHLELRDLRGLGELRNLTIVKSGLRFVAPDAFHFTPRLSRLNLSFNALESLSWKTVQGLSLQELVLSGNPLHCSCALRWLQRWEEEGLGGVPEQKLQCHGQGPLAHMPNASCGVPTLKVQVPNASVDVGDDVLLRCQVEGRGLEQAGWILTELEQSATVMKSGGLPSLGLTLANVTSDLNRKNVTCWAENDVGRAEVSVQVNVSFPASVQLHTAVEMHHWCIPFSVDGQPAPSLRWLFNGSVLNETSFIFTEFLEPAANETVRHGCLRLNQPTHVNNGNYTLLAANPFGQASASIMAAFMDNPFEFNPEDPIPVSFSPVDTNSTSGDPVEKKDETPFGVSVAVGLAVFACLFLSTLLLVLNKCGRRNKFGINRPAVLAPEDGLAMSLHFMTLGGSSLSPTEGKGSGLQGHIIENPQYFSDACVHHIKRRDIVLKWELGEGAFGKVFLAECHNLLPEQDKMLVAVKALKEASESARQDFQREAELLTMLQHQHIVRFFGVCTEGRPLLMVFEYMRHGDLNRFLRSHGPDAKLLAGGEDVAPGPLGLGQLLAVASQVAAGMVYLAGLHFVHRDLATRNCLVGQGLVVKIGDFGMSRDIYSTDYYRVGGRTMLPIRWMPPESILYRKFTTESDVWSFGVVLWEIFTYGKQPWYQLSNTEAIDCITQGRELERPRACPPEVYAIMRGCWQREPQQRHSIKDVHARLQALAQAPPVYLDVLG

[33] = target: Misshapen-like kinase 1 (Homo sapiens) (UniProt Q8N4C8); test: Inhibition of human recombinant MINK1 at 125 nM
[34] = target: Maternal embryonic leucine zipper kinase (Homo sapiens) (UniProt Q14680); test: Inhibition of human recombinant MELK at 125 nM
Maternal embryonic leucine zipper kinase (Homo sapiens), sequence (Q14680 whole entry, looked up): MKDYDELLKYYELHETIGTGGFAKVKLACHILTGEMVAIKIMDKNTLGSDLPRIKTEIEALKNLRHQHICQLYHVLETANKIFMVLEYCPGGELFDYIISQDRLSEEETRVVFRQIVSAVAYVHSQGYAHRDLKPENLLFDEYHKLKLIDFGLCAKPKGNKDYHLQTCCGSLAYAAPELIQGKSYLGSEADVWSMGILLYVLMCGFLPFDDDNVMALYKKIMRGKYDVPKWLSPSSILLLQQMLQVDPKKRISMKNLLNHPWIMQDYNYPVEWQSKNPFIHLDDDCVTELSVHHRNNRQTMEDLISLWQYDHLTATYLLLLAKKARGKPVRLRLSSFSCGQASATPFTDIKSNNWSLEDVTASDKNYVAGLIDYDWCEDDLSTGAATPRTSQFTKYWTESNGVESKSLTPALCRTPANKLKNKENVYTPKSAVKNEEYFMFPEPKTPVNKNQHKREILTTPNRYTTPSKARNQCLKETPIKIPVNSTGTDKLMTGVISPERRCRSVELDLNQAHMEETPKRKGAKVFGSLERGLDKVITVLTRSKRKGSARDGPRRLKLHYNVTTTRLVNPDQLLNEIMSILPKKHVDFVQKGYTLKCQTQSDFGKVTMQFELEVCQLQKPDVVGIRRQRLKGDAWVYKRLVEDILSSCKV

[35] = target: Serine/threonine-protein kinase Chk1 (Homo sapiens) (UniProt O14757); test: Inhibition of human recombinant CHK1 at 125 nM

Activity [1]: Active
IC50 [7]: 4.44 µM
AUC(0-t) at 8 h [13]: 6240 ng·h/mL
MRT last at 8 h [14]: 10.8 min
half-life [15]: 90.6 min
clearance [16]: 29.3 mL/min/kg
Vd [17]: 0.32 L/kg
IC50 [18]: 0.923 µM
IC50 [19]: 0.0607 µM
bioavailability [21]: < 1%
Drug uptake [22]: Active
inhibition [23]: Active
inhibition [24]: Active
inhibition [25]: Active
Activity [28]: Active
Activity [29]: inactive
Activity [30]: inactive
Activity [31]: inactive
inhibition [32]: Active
inhibition [33]: Active
inhibition [34]: Active
inhibition [35]: Active
SMILES: O=C1NCc2c1c1c3cc(O)ccc3[nH]c1c1[nH]c3ccccc3c21
Activity [2]: Active
Activity [3]: Active
inhibition [4]: Dose-Dependent Effect
Activity [5]: Non-Toxic
inhibition [6]: Dose-Dependent Effect
Activity [8]: Active
Activity [9]: Active
Activity [10]: Active
Activity [11]: Active
Activity [12]: Active
Ratio IC50 [20]: > 10
inhibition [26]: Active
inhibition [27]: Active
